PMC10987521, “An all-in-one tetrazine reagent for cysteine-selective labeling and bioorthogonal activable prodrug construction” (Nature Communications, 2024)

Experiments:
[1] = test system: B16F10 cells; assay: Cell uptake by fluorescence imaging, B16F10; format: cell-based, Mouse; conditions: B16F10 pre-treated with 50-fold excess of unmodified RGD, 10 μM, 2 h
Description: B16F10 cells were cultured for 48 h. […]
12.1 Calculation of the fluorescence coefficient (F c)
The Fc was the radio calculated
12.2 Uptake calculation of the B16F10 cells […]
deviation were analyzed using Origin Pro 2015.
B16F10 cells, characterized by α vβ3
Following the incubation period, the
Subsequently, the cells were trypsinized and underwent three PBS rinses.
12 .4 Cell uptake analysis by fluorescence imaging

[2] = test system: B16F10 cells; assay: Cellular uptake of RGD-Dox over various time intervals using flow cytometry; format: cell-based, Mouse

COc1cccc2c1C(=O)c1c(O)c3c(c(O)c1C2=O)C[C@@](O)(C(=O)CO)C[C@@H]3O[C@H]1C[C@H](NC(=O)OCc2nnc(CCSC[C@@H]3NC(=O)[C@@H](Cc4ccc(O)cc4)NC(=O)[C@H](CC(=O)O)NC(=O)CNC(=O)[C@H](CCCNC(=N)N)NC3=O)nn2)[C@H](O)[C@H](C)O1 [RGD-Dox]
cellular fluorescence (uptake) after blocking with unmodified RGD [1]: negligible fluorescence
cellular uptake of RGD-Dox (flow cytometry) ([2]; 0.5 h, Data 2): 4811
cellular uptake of RGD-Dox (flow cytometry) ([2]; 1 h, Data 1): 7075
cellular uptake of RGD-Dox (flow cytometry) ([2]; 1 h, Data 2): 6214
cellular uptake of RGD-Dox (flow cytometry) ([2]; 2 h, Data 2): 11247
cellular uptake of RGD-Dox (flow cytometry) ([2]; 2 h, Data 3): 9887
cellular uptake of RGD-Dox (flow cytometry) ([2]; 3 h, Data 1): 12006
cellular uptake of RGD-Dox (flow cytometry) ([2]; 3 h, Data 2): 12578
cellular uptake of RGD-Dox (flow cytometry) ([2]; 4 h, Data 2): 13144
